Measurements published in BindingDB's records for patent US20240010634 (H. Lee Moffitt Cancer Center and Research Institute, 2024).

Biological target: Activated CDC42 kinase 1 (Homo sapiens, UniProt Q07912)
Sequence (Q07912 whole entry): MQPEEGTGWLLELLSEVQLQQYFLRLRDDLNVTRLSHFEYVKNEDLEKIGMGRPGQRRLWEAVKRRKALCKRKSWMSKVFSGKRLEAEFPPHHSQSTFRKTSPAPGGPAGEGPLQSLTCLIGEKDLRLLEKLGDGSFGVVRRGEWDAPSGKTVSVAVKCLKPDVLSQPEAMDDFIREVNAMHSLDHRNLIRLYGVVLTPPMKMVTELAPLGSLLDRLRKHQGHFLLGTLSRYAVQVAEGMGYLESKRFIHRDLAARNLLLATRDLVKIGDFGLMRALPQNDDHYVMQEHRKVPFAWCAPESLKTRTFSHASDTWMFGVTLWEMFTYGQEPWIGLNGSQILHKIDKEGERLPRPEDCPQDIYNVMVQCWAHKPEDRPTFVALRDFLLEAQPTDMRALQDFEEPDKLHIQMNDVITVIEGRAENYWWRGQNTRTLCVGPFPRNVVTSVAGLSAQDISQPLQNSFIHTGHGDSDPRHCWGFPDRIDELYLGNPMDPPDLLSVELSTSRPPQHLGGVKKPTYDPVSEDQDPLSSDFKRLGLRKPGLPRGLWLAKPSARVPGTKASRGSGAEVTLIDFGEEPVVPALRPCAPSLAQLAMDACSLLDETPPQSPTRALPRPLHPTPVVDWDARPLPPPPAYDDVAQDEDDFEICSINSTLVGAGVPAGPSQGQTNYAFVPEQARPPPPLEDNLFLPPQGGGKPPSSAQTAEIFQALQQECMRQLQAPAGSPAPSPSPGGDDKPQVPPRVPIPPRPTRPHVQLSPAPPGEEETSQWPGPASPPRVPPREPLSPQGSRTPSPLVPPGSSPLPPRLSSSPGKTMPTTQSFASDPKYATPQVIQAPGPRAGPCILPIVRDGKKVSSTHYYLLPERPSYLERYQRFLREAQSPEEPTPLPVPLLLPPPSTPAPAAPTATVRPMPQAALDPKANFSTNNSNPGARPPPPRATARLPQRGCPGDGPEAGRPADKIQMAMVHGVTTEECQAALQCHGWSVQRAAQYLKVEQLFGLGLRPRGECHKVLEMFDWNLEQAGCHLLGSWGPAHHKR

COc1cc(N2CCN(C)CC2)ccc1Nc1ncc(Cl)c(Nc2ccc(NS(C)(=O)=O)cc2)n1 [US20240010634, Example 33]
IC50: 26 nM
